What was measured:
Format in all cases: in vivo, human
[1] = tested on: patient with irritable bowel syndrome; experiment: irritable bowel syndrome signs or symptoms
Description: (§1) This example sets forth the treatment of a patient with signs or symptoms of disease associated with reduced blood flow to an organ or tissue (correlated with hypertonicity of the associated blood vessels) using high doses of famciclovir, a compound of Formula (II) where B is H and each of R1 and R2 is CH3C(O)—, at a level and under conditions as explained below.
(§2) A patient weighing about 100 kg having multiple signs or symptoms of autoimmune disease had been ingesting famciclovir for several years at about 10 g per day taken 4 times daily during a 24 hour period. While the subject's condition was tolerable, they were in a regular state of pain in the joints and had other signs or symptoms discussed below.
The patient also presented with irritable bowel syndrome (IBS) signs or symptoms, such as severe distention, cramps and pain spasms. After increasing intake of famciclovir to a maintenance level of 300 mg/kg per day, the patient experienced a dramatic improvement. […] The distended waist circumference was reduced from 44 inches to 38 inches over a period of days, and pain was about 90% relieved. Since the patient experienced no weight loss, the reduction in distention was due to the relief of bowel spasms.

[2] = tested on: patient with muscle spasms, pain and inability to sleep; experiment: muscle spasms, pain, sleep and restless leg; settings: 300 mg/kg per day
Description: Severe sleep disturbance can be caused by inability to relax the axial muscles due to hypertonus. It is not appreciated by those without hypertonus of the muscles, but it is necessary for the somatic muscles to relax to a predetermined level, before sleep will commence. Hypertonus can prevent that relaxation and prevent sleep. One patient was unable to achieve normal REM sleep for over 15 years, when their autoimmune disease was treated with the current treatments, which are essentially ineffective. However, this same patient was restored to essentially […] on the doses of this invention. Additionally this patient suffered from severe “restless leg syndrome” which is caused by the same disease conditions of the sympathetic chain as causes all above. […] At the levels of '114 these benefits were only slightly apparent, with the doses of this application normal REM sleep is restored. And, if the drug levels of the 2-aminopurines are allowed to drop for only a few hours the inability to sleep, and the severe restless leg return to the afflicted. […] The relationship of the appearance or suppression of the signs or symptoms of sleep disturbance to the onboard drug level is consistent and dramatic. […] The patient was administered 300 mg/kg of famciclovir per day and experienced relief of 90% of the spasms and pain. […]

[3] = tested on: patient with Raynaud's syndrome; experiment: Raynaud's syndrome signs or symptoms; settings: 300 mg/kg per day in four equal doses over 24 hours
Description: as §1, §2
The patient also presented signs or symptoms of Raynaud's syndrome, which involves marked or severe vasoconstriction and ischemia in the extremities, usually fingers and toes. As a result, the patient often experienced extreme pain, cold, discoloration, lack of sensation and weakness in the affected parts. […] The signs or symptoms returned when the frequency of taking the drug was lowered from once every 6 hours to once every 10 hours.

patient lung function = experiment: lung function by blood oxygenation (pulse oximetry)
Description: Still another example of improvement that the inventor has discovered is improved pulmonary function. […] The pulmonary function was increased to 96% SATS by using the very high dose treatment of this invention. […] Thus the method of this invention can treat and reverse pulmonary hypertension and pulmonary fibrosis. […] Improvements of this kind in this range with this kind of patient (no known existing lung disease) are unusual. Thus, another aspect of this invention is a method to improve pulmonary function by administering a compound in accordance with the teachings herein. Treatments which cause similar improvements in patients with lung disease are direct acting relaxants upon the muscles of the vessels and the airways of the lung. The compounds of this invention have no such direct effect, and can only relax these critical lung muscles by suppressing the herpetically-induced “hypertonus” or resting tone of these muscles which was elevated above normal tone by the herpetic activity in the cells of the sympathetic chain which control these muscles.
An improvement in lung function was seen, possibly via relief of pulmonary hypertension, while taking famciclovir at 300 mg/kg per day. […] The patient's oxyhemoglobin increased from 92% to 96%. This small improvement is significant for this parameter in the 90%-100% range. […]

[4] = tested on: patients with autoimmune disease; experiment: pain and signs or symptoms of autoimmune disease in general; settings: very high levels
Description: After the drugs take effect, usually in less than an hour, the pain is at least 50% reduced or disappears. This is a particularly surprising and useful discovery.
In the past, it was observed, that a patient that stopped increasing the dosage of the anti-herpes drugs at the threshold of pain rarely achieves the relief of the autoimmune signs or symptoms. Patients who exceed the pain threshold and take over 20 g per day (over 200 mg/kg/day) start experiencing a reduction in autoimmune symptoms for prolonged periods of time. The pain in such patients eventually disappears. Patients who take even higher doses, 30 g per day for a 100 kg subject (300 mg/kg) and higher, experience a continuous relief of at least 90% of all of their autoimmune signs or symptoms, including pain, as long as they continue taking the drug.
Most importantly, the present invention teaches alleviation of pain associated with autoimmune disease. The prior art, including the '114 patent, teaches to use pain as guide when adjusting the maximum dose of the anti-herpes drug. However, it is now disclosed that a patient should tolerate the pain during the initial period of taking extremely high doses of anti-herpes drugs. After the drugs take effect, usually in less than an hour, the pain is at least 50% reduced or disappears. […]

[5] = tested on: patient with nutcracker esophagus; experiment: nutcracker esophagus spasms; settings: 300 mg/kg per day
Description: Another condition experienced by the patient related to muscle spasms referred to as the “nutcracker esophagus.” This condition involves very painful spasms of the esophagus caused by food touching the hypersensitive “trigger points” inside the esophagus. These spasms can persist from minutes to hours. […] The condition recurs within a few hours when the drug is stopped.

[6] = tested on: patient with rheumatoid arthritis; experiment: rheumatoid arthritis signs or symptoms; settings: 300 mg/kg per day
Description: Another effect of anti-herpes drugs was elimination of the signs or symptoms of rheumatoid arthritis. A patient experienced 100% reduction in joint swelling, pain, inflammation and clicks at 300 mg/kg of famciclovir per day.

## CC(=O)OCC(CCn1cnc2cnc(N)nc21)COC(C)=O [famciclovir, 2-amino-9-(4-acetoxy-3-acetoxymethylbut-1-yl)purine]
[1]; 300 mg/kg per day
  IBS pain relieved: about 90%
[1]; 300 mg/kg per day, over a period of days, reduced from 44 inches
  distended waist circumference: 38 inches
[1]; maintenance level of 300 mg/kg per day
  IBS pain spasms: dramatically decreased
[2]
  relief of the spasms and pain: 90%
  severe bowel and back pain and spasms relieved: about 80%
[3]
  Raynaud's signs or symptoms (pain, cold, discoloration, lack of sensation, weakness): dramatically abated
Patient lung function; after six months of 300 mg/kg per day, from 92%
  pulse O2 (oxyhemoglobin): 96%
Patient lung function; several years taking about 100 mg/kg
  pulse O2 (oxyhemoglobin): 92%
[4]
  pain associated with autoimmune disease: immediate relief
[5]
  nutcracker esophagus condition: completely relieved and prevented
[6]
  reduction in joint swelling, pain, inflammation and clicks: 100%
